Assay in all cases: inhibition of tumour cell growth, NCI panel, 48 h
Test [1] concerns PC-3 prostate.
Test [2] deals with T-47D breast.
The subject of test [3] is UACC-257 melanoma.
The subject of test [4] is NCI-H460 lung.
Test [5] deals with A498 renal.
The test system of test [6] is SK-MEL-2 melanoma.
Test [7] concerns TK-10 renal.
The subject of test [8] is SR leukemia.
The subject of test [9] is MDA-MB-231 breast.
The subject of test [10] is OVCAR-4 ovarian.

Values joined by “and” are separate entries in the source; they are usually repeats but may differ in a detail not shown here. Equal values may be shown once.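 48-hour exposure; five concentrations; linearly interpolated endpoints. The concentration for 50% growth inhibition is given as GI50. TGI: total growth inhibition.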 Bounds are passed on as bounds.

On to `CN(C(=O)c1ccncc1)c1ccccc1`, for which the TGI in test [1], in test [2], in [3], in test [4], in [5] and in test [6] was more than 100 µM in each case. Further, the TGI in test [7], in test [8], in [9] and in test [10] was more than 100 µM in each case.

In the case of `CSC1(SC2=NCCN2)SC2(NCCN2)S1`, the TGI in test [1] was 34.3 µM; in test [2], 5.91 µM; in [3], 46.6 µM; in test [4], 45.4 µM; in [5] it was 27.9 µM; in test [6], 39.4 µM. For the same compound, the TGI turned out to be 18.6 µM in test [7], 37.7 µM in [8], 38.6 µM in [9] and 44.6 µM in test [10].

Take `OCC1OC(n2cnc3c(=S)nc[nH]c32)C(O)C1O` (stereo not drawn): the GI50 was 6.71 µM in test [1]; 2.95 µM in test [2]; more than 100 µM in test [3]; 7.72 µM in test [4]; 19.8 µM in test [5]; more than 100 µM in [6]. Moreover, the GI50 in test [7] is 4.37 µM; in test [9] it was 14.1 µM; in [10], 4.05 µM. Further, the TGI in [1] is more than 2500 µM; in [2] it was more than 2500 µM; in [3], more than 2500 µM; in test [4], more than 2500 µM; in test [5], more than 2380 µM; in test [6], more than 2500 µM. The TGI in test [7], in test [8], in test [9] and in [10] was more than 2500 µM each time.

In the case of `S=C(Nc1cc(Cl)c(Cl)cc1Cl)SCc1ccccc1`, the TGI in test [1] was more than 100 µM; in test [2], more than 100 µM; in test [3] it was 37.6 µM; in [4], more than 100 µM; in test [5], 82.5 µM; in [6], more than 100 µM. Also, the TGI in [7] was determined as 53.8 µM; in [8], 10.8 µM; in test [9], 29.6 µM; in test [10] it was 65.3 µM.

With `c1ccc(CSc2nnc3c4ccccc4c4ccccc4c3n2)cc1`, the TGI in test [1] was more than 100 µM; in test [2], more than 100 µM; in [3], more than 100 µM; in [4], more than 100 µM; in [5], more than 100 µM; in test [6], more than 79.7 µM. Moreover, the TGI in test [7] was 84.5 µM; in test [8], more than 100 µM; in test [9] it was more than 100 µM; in [10], more than 96.3 µM.

With `O=C(CCCSc1nc(-c2ccccc2)cc(-c2ccc(Cl)cc2)n1)NO`, the GI50 in test [1] was 2.19 µM; in test [2] it was 1.92 µM; in [3], 2.92 µM; in test [4], 0.558 µM; in [5] it was 1.7 µM; in test [6] it was 4.39 µM. Further, the GI50 in test [7] is 0.773 µM; in test [8], 0.364 µM; in [9], 2.12 µM; in test [10], 1.12 µM. The TGI is 12.3 µM in test [1]; 16.2 µM in test [2]; 12.4 µM in test [3]; 7.29 µM in [4]; 4.7 µM in [5]; 18.5 µM in test [6]. In addition, the TGI in [7] turned out to be 12.3 µM; in test [8], 13.2 µM; in test [9] it was 11.6 µM; in test [10], 14.4 µM.

In the case of `CN(C)c1ccc(C(=C2C=CC(=[N+](C)C)C=C2)c2ccc(N(C)C)cc2)cc1`, the GI50 was 0.178 µM in test [1]; 0.157 µM in [2]; 0.228 µM in test [3]; 0.145 µM in test [5]; 0.162 µM in test [7]; 0.0591 µM in test [8]. Also, the GI50 in test [9] is 0.246 µM. Further, the TGI in test [1] was 0.963 µM; in test [2] it was 1.12 µM; in test [3], 0.763 µM and 0.416 µM; in test [4] it was 1.55 µM; in [5] it was 0.622 µM; in [6], 0.472 µM and 0.482 µM. For the same compound, the TGI was 0.864 µM in test [7]; 0.672 µM and 3.2 µM in [8]; 1.26 µM in [9]; 1.05 µM in test [10].

With `COC(=O)C(F)C(Br)C(=O)OC` (stereo not drawn), the TGI in test [1] turned out to be 10.1 µM; in test [2], 6.63 µM; in test [3], 28.4 µM; in test [4], 39.3 µM; in test [5], 43.9 µM; in [6], 32.6 µM. For the same compound, the TGI in test [7] was determined as 5.37 µM; in test [8], 3.27 µM; in [9] it was 28.3 µM; in test [10] it was 19.8 µM.

Take `CCCc1cc(=O)n2c(C(=O)Nc3ccccc3OC)c(C(=O)Nc3ccc(F)cc3)sc2n1`: the GI50 in [1] was 3.61 µM; in test [2] it was 71.8 µM; in test [3], 20.2 µM; in test [4], 39.8 µM; in [5], 34.3 µM; in test [6], 7.53 µM. Besides, the GI50 was 26 µM in [7], 4.57 µM in [8], 3.29 µM in test [9] and 5.03 µM in [10]. The TGI in test [1] was 12.9 µM; in test [2], more than 160 µM; in test [3] it was 60.2 µM; in test [4], more than 160 µM; in test [5], 97.1 µM; in [6], 29.6 µM. In addition, the TGI was 64.3 µM in test [7], 25.3 µM in test [8], 11.2 µM in test [9] and 15.3 µM in test [10].

With `c1ccc(P(CCP(CCP(c2ccccc2)c2ccccc2)c2ccccc2)CCP(c2ccccc2)c2ccccc2)cc1` (stereo not drawn), the GI50 is more than 10 µM in [1]; > 10 µM and 3.58 µM in test [9]. Besides, the TGI in test [1] was more than 10 µM; in [2] it was 4.79 µM; in [3] it was more than 10 µM; in test [4], 3.12 µM; in [5], more than 10 µM; in test [6] it was more than 10 µM. Moreover, the TGI in test [7], in [8], in test [9] and in [10] was more than 10 µM in each case.
